Data from US7786090B2, “Methods and compositions for treating and preventing neurologic disorders” (President and Fellows of Harvard College, priority 2006, dated 2010).
Square brackets hold non-standard residues; d marks the D form. Ends that are not written are not given here. Peptide text beside a SMILES is read from it. * marks the point of attachment. pS = N[C@@H](COP(=O)(O)O)C(=O)O; Cbz = O=C(OCc1ccccc1)*

Legend:
Pin1 = Pin1 (Homo sapiens, UniProt Q13526); conditions: Daum et al. 2006; cited from earlier work
Pin1, sequence (Q13526 whole entry, species assumed): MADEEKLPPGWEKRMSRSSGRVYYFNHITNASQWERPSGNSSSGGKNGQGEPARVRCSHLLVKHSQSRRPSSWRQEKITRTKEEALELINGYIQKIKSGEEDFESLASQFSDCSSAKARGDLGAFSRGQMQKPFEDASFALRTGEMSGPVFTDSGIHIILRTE

[1] = target: T1, interaction of Pin1 with JIP3 (Homo sapiens, UniProt Q13526); experiment: GST-Pin1 pulldown with increasing Pintide, Pin1-JIP3 interaction; format: binding; parameters: dose or concentration left out as unconfirmed; conditions: lysates of 293T cells transfected with FLAG-JIP3, Pintide 0, 2.5, 5, 10, 25
T1 construct: made in house; FLAG-JIP3: lysate of transfected 293T cells
T1 sequence (Q13526 whole entry): as the sequence (Q13526 whole entry, species assumed) above
Experimental: (§1) FIG. 2G is a series of immunoblot photographs. Lysates of 293T cells transfected with FLAG-JIP3 or FLAG-BIMEL together with FLAG-MEKK1Δ were subjected to a GST-Pin1 pulldown assay in the presence of increasing amount of Pintide peptide ([…]), followed by immunoblotting for FLAG and GST. Representative immunoblots of three independent experiments are shown.
(§2) GST-pulldown assays were performed as described by Ryo et al., Mol. Cell 12: 1413-1426, 2003. Immunoprecipitations and subcellular fractionations were performed as described by Konishi et al., Science 303: 1026-1030, 2004. The postnuclear supernatant was further centrifuged at 10,000 g for 30 min to pellet the mitochondrially-enriched heavy membrane (HM) fraction. Antibodies to BIM (Stressgen); phospho65 BIM antibody (Biosource); HA, HSP60, JIP3, GST (Santa Cruz Biotechnology); FLAG (Sigma); P-c-Jun, MKK7, Pin1 (Cell Signaling); SP1, JNK (Upstate); GFP (Molecular Probes) are available commercially.
(§3) Thus, similar to BIMEL, JIP3 interacts with Pin1 in a phosphorylation-dependent manner.

[2] = target: T2, interaction of Pin1 with BIMEL (Homo sapiens, UniProt Q13526); experiment: GST-Pin1 pulldown with increasing Pintide, Pin1-BIMEL interaction; format: binding; conditions: lysates of 293T cells transfected with FLAG-BIMEL and FLAG-MEKK1Δ, Pintide 0, 2.5, 5, 10, 25, 50 mM
T2 construct: made in house; FLAG-BIMEL: lysate of 293T cells co-transfected with FLAG-MEKK1Δ
T2 sequence (Q13526 whole entry): as the sequence (Q13526 whole entry, species assumed) above
Experimental: as §1, §2, §3

[3] = system: interaction of Pin1 and JIP3; experiment: Co-immunoprecipitation of endogenous Pin1 and JIP3 in granule neurons; format: cell-based, rat; conditions: exposure of granule neurons to JNK activating stimuli
Experimental: Lysates from granule neurons that were kept in conditioned full medium (CM) or starved for 2 h (Starv) were immunoprecipitated using a JIP3 antibody, followed by immunoblotting for Pin1. Left panels show the expression of JIP3 and Pin1.
To determine whether the binding of Pin1 to JIP3 is regulated by an apoptotic stimulus, we measured the interaction of endogenous Pin1 and JIP3 in granule neurons that were left in full medium (conditioned medium, CM) or that were starved for two hours.

JNK signaling = JNK signaling in cerebellar granule neurons (phosphorylation of c-Jun and BIMEL); format: cell-based, rat; conditions: granule neurons treated for 5 h with 5 μM MG132
Experimental: FIG. 1C is a series of immunoblot photographs. Lysates of cerebellar granule neurons untreated or treated for 5 h with 5 μM MG132 were subjected to a pulldown with GST-Pin1 WW, followed by immunoblotting for BIM. Lower panels show the expression of BIMEL and phosphorylated c-Jun.
The phosphorylation of BIMEL at Ser65 triggers apoptosis specifically in neurons but not in non-neural cells. A critical regulatory post-phosphorylation event is the prolyl isomerization of proteins at sites of proline-dependent phosphorylation. A major function of Pin1 is to drive cells through mitosis in proliferating cells. Pin1 is also highly expressed in the nervous system. To assess whether Pin1 binds to Ser65-phosphorylated BIMEL in vitro, we used a GST pulldown assay. We expressed BIMEL in 293T cells alone or together with a constitutively active form of the kinase MEKK1 (MEKK1Δ), an upstream activator of JNK. Expression of MEKK1Δ results in the robust phosphorylation of BIMEL at Ser65, which is reflected by a mobility shift of BIMEL (FIG. 1A). Recombinant GST-Pin1, but not GST, specifically co-precipitated phosphorylated but not unphosphorylated BIMEL from cell lysates (FIG. 1A). […] In other experiments, we tested if a recombinant GST fusion protein containing the WW domain of Pin1 associates with BIMEL. The WW domain of Pin1 interacts specifically with phosphoSer/Thr-Pro motifs. […]

Molecule | inhibition of Pin1 (Pin1) | interaction of Pin1 and JIP3 [3] | further results
COc1ccc(F)cc1C(=O)C1(C)CCc2ccccc21 (racemic) [rac-9] | inhibit Pin1 | – | –
WFYpSPRLKK (WFY[pS]PRLKK) [Pintide] | – | – | disruption of the interaction of Pin1 with JIP3 [1]: disrupted the interaction of Pin1 with JIP3 and BIMEL in a dose-dependent manner; disruption of the interaction of Pin1 with BIMEL [2]: disrupted the interaction of Pin1 with JIP3 and BIMEL in a dose-dependent manner
CC(C)C[C@@H](C=O)NC(=O)[C@H](CC(C)C)NC(=O)[C@H](CC(C)C)NC(=O)OCc1ccccc1 [MG132] (Cbz-Leu-Leu-Leu-aldehyde) | – | led to a decrease | JNK signaling (JNK signaling): activated JNK signaling
COc1ccc(F)cc1C(=O)[C@]1(C)CCc2ccccc21 [(R)-9] | inhibit Pin1 | – | –
OO [hydrogen peroxide] | – | led to a decrease | –
